Measurements as given in publication PMC6591251, “Discovery of potent necroptosis inhibitors targeting RIPK1 kinase activity for the treatment of inflammatory disorder and cancer metastasis” (Cell Death & Disease, 2019).

Legend:
Assay in all cases: RBC kinase panel
Format in all cases: biochemical
Details in all cases: ATP 10 μM, Data1, Data2
FGFR2 = target: T1, FGFR2 (Homo sapiens, UniProt P21802)
T1 construct: purchased Reaction Biology Corporation
Summary of the method: (§1)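 Each of the 369 panel kinases (human) received the compound at 1 μM; reactions used 10 μM ATP and were set up in duplicate.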

LIMK1 = target: T2, LIMK1 (Homo sapiens, UniProt P53667)
T2 construct: purchased Reaction Biology Corporation
Summary of the method: as §1

SNARK/NUAK2 = target: T3, SNARK/NUAK2 (Homo sapiens, UniProt Q9H093)
T3 construct: purchased Reaction Biology Corporation
T3 sequence (Q9H093 whole entry): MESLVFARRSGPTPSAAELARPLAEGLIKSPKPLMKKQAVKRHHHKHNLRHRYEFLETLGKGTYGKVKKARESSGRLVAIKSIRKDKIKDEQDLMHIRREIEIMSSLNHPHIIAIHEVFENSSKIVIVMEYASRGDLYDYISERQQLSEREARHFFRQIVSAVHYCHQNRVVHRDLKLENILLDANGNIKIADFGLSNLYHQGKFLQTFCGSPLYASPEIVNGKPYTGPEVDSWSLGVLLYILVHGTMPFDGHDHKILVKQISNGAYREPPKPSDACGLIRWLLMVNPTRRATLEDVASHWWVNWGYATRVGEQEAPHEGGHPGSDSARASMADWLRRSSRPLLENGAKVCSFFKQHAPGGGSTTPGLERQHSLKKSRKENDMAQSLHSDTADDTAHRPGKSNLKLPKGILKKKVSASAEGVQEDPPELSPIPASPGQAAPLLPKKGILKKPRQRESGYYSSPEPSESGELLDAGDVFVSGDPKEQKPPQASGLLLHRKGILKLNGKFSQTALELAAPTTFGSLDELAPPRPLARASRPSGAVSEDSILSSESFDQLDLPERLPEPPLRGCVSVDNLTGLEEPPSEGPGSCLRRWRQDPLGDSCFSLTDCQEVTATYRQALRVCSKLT
Summary of the method: as §1

MSK2/RPS6KA4 = target: T4, MSK2/RPS6KA4 (Homo sapiens, UniProt O75676)
T4 construct: purchased Reaction Biology Corporation
T4 sequence (O75676 whole entry): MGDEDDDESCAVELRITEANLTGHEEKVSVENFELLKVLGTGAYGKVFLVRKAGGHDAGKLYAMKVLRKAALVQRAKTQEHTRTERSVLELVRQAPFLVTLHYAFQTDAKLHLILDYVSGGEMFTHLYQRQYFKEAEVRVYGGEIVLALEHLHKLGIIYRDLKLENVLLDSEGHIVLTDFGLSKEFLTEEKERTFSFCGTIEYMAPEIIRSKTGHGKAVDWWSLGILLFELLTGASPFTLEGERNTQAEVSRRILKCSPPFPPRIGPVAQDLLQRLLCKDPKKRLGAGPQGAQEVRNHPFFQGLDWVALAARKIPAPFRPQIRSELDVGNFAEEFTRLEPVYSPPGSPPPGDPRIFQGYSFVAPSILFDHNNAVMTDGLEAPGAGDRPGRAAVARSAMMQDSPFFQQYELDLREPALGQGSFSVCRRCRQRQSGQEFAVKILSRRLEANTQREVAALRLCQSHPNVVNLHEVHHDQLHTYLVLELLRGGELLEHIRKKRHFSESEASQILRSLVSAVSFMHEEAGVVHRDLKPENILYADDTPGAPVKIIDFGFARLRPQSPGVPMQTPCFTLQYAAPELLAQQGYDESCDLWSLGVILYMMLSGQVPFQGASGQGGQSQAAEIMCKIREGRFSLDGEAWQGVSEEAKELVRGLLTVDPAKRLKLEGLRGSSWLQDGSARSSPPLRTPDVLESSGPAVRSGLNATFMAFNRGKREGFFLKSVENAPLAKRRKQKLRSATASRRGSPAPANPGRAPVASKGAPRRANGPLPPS
Summary of the method: as §1

BRSK2 = target: T5, BRSK2 (Homo sapiens, UniProt Q8IWQ3)
T5 construct: purchased Reaction Biology Corporation
T5 sequence (Q8IWQ3 whole entry): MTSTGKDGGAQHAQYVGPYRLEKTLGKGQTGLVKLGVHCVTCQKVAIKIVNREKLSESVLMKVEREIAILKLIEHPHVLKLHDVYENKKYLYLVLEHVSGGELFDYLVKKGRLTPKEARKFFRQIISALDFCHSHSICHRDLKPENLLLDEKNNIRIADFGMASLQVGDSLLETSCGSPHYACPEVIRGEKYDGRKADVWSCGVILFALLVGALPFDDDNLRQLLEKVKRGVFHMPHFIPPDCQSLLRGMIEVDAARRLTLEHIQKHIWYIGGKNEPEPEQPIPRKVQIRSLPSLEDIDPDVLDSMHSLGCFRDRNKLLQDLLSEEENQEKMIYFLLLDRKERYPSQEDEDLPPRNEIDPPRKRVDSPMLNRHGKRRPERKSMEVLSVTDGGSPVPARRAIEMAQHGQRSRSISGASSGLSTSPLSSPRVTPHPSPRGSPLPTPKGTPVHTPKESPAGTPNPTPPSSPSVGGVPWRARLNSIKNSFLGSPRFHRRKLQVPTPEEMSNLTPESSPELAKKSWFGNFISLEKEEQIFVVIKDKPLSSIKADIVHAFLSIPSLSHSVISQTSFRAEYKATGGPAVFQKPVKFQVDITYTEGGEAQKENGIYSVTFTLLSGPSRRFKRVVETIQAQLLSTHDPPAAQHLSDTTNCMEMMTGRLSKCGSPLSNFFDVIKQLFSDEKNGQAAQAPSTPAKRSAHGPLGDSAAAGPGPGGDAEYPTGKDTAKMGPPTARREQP
Summary of the method: as §1

PHKg2 = target: T6, PHKg2 (Homo sapiens, UniProt P15735)
T6 construct: purchased Reaction Biology Corporation
Summary of the method: as §1

MEK1 = target: T7, MEK1 (Homo sapiens, UniProt Q02750)
T7 construct: purchased Reaction Biology Corporation
Summary of the method: as §1

STK32B/YANK2 = target: T8, STK32B/YANK2 (Homo sapiens, UniProt Q9NY57)
T8 construct: purchased Reaction Biology Corporation
Summary of the method: as §1

COT1/MAP3K8 = target: T9, COT1/MAP3K8 (Homo sapiens, UniProt P41279)
T9 construct: purchased Reaction Biology Corporation
Summary of the method: as §1

AXL = target: T10, AXL (Homo sapiens, UniProt P30530)
T10 construct: purchased Reaction Biology Corporation
Summary of the method: as §1

GLK/MAP4K3 = target: T11, GLK/MAP4K3 (Homo sapiens, UniProt Q8IVH8)
T11 construct: purchased Reaction Biology Corporation
T11 sequence (Q8IVH8 whole entry): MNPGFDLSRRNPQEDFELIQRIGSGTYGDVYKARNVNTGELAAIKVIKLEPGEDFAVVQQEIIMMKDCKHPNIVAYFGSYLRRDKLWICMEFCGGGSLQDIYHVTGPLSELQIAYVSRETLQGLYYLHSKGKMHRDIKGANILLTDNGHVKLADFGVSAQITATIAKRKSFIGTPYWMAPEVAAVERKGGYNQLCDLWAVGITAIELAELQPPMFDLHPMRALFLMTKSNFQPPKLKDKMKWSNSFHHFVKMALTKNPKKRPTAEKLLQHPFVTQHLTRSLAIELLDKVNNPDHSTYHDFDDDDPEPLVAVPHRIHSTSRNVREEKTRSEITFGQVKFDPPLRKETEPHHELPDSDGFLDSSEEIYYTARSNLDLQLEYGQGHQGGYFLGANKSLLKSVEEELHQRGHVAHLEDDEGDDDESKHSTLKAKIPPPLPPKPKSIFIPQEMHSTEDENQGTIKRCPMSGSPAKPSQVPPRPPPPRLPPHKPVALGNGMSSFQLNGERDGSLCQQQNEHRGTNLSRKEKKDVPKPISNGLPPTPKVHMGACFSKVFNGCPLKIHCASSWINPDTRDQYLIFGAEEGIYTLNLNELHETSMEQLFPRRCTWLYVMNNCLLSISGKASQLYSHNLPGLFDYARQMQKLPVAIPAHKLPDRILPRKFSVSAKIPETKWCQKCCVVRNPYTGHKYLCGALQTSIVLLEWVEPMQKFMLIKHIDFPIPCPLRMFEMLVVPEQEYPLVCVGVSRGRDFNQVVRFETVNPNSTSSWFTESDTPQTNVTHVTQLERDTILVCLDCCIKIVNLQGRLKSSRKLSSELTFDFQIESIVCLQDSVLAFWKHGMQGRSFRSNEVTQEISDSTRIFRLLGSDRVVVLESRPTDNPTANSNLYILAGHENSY
Summary of the method: as §1

TSSK3/STK22C = target: T12, TSSK3/STK22C (Homo sapiens, UniProt Q96PN8)
T12 construct: purchased Reaction Biology Corporation
Summary of the method: as §1

ERBB2/HER2 = target: T13, ERBB2/HER2 (Homo sapiens, UniProt P04626)
T13 construct: purchased Reaction Biology Corporation
Summary of the method: as §1

p70S6Kb/RPS6KB2 = target: T14, p70S6Kb/RPS6KB2 (Homo sapiens, UniProt Q9UBS0)
T14 construct: purchased Reaction Biology Corporation
Summary of the method: as §1

CK1g1 = target: T15, CK1g1 (Homo sapiens, UniProt Q9HCP0)
T15 construct: purchased Reaction Biology Corporation
T15 sequence (Q9HCP0 whole entry): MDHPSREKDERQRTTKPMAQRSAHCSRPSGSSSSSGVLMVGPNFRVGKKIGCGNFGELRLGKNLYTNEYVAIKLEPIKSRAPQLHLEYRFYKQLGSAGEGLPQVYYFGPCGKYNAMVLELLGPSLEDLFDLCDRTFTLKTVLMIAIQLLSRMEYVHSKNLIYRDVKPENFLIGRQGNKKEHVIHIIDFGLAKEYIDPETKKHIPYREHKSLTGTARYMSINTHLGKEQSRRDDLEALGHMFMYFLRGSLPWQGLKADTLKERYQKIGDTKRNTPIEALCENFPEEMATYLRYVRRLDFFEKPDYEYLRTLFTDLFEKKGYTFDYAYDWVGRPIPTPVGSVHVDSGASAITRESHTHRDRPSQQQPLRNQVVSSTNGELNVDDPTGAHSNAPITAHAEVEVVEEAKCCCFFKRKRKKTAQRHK
Summary of the method: as §1

EPHA8 = target: T16, EPHA8 (Homo sapiens, UniProt P29322)
T16 construct: purchased Reaction Biology Corporation
Summary of the method: as §1

MKK6 = target: T17, MKK6 (Homo sapiens, UniProt P52564)
T17 construct: purchased Reaction Biology Corporation
Summary of the method: as §1

YSK4/MAP3K19 = target: T18, YSK4/MAP3K19 (Homo sapiens, UniProt Q56UN5)
T18 construct: purchased Reaction Biology Corporation
Summary of the method: as §1

STK38L/NDR2 = target: T19, STK38L/NDR2 (Homo sapiens, UniProt Q9Y2H1)
T19 construct: purchased Reaction Biology Corporation
Summary of the method: as §1

PKAcg = target: T20, PKAcg (Homo sapiens, UniProt P22612)
T20 construct: purchased Reaction Biology Corporation
Summary of the method: as §1

SIK3 = target: T21, SIK3 (Homo sapiens, UniProt Q9Y2K2)
T21 construct: purchased Reaction Biology Corporation
Summary of the method: as §1

YES/YES1 = target: T22, YES/YES1 (Homo sapiens, UniProt P07947)
T22 construct: purchased Reaction Biology Corporation
T22 sequence (P07947 whole entry): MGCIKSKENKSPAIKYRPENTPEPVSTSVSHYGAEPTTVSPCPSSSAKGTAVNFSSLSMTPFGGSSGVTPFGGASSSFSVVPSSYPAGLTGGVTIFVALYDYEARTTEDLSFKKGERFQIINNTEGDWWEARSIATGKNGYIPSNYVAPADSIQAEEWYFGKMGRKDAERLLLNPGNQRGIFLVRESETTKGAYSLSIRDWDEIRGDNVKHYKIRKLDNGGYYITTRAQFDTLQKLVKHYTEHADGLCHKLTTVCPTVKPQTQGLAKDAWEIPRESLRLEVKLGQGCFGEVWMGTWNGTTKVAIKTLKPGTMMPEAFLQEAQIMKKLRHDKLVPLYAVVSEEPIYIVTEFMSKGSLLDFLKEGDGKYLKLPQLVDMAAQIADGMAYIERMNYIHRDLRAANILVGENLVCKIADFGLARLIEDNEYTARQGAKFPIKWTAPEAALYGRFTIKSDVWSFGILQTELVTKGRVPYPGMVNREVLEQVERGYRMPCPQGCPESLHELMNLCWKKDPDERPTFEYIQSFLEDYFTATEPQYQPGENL
Summary of the method: as §1

ZAP70 = target: T23, ZAP70 (Homo sapiens, UniProt P43403)
T23 construct: purchased Reaction Biology Corporation
Summary of the method: as §1

TAOK3/JIK = target: T24, TAOK3/JIK (Homo sapiens, UniProt Q9H2K8)
T24 construct: purchased Reaction Biology Corporation
Summary of the method: as §1

MYLK4 = target: T25, MYLK4 (Homo sapiens, UniProt Q86YV6)
T25 construct: purchased Reaction Biology Corporation
Summary of the method: as §1

WNK1 = target: T26, WNK1 (Homo sapiens, UniProt Q9H4A3)
T26 construct: purchased Reaction Biology Corporation
Summary of the method: as §1

FLT4/VEGFR3 = target: T27, FLT4/VEGFR3 (Homo sapiens, UniProt P35916)
T27 construct: purchased Reaction Biology Corporation
Summary of the method: as §1

PKG1b = target: T28, PKG1b (Homo sapiens, UniProt Q13976)
T28 construct: purchased Reaction Biology Corporation
Summary of the method: as §1

T1 sequence (P21802 22-821): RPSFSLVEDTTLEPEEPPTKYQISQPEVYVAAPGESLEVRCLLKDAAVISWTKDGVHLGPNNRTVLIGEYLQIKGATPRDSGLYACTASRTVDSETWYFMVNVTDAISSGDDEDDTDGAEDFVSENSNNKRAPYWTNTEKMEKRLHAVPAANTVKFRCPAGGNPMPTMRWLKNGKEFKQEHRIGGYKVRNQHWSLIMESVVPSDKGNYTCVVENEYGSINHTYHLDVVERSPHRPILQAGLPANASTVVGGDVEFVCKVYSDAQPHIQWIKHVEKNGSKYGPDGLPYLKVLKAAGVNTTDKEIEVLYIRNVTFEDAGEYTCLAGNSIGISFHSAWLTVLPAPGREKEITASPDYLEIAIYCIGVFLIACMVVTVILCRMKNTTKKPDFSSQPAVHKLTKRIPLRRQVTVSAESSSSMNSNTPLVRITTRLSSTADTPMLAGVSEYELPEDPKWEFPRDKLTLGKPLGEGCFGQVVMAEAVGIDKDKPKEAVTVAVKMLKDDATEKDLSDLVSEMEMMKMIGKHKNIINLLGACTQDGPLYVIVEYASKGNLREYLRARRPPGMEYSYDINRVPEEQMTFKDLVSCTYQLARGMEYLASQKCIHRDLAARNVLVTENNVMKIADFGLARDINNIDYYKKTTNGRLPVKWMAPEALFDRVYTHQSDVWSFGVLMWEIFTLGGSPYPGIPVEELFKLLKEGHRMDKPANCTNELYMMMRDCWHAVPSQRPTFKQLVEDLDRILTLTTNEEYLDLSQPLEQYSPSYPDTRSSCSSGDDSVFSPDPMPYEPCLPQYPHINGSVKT

CC(=O)Nc1nc2ccc(-c3cnc(C)c(NC(=O)OC4CCCCC4)c3)cc2s1 [PK68, cyclohexyl (5-(2-acetamidobenzo[d]thiazol-6-yl)-2-methylpyridin-3-yl)carbamate]
Activity% (FGFR2; 1 μM): 88.90%
activity at 1 µM (FGFR2): 91%
Activity% (LIMK1; 1 μM): 63.37%
activity at 1 µM (LIMK1): 63.4%
Activity% (SNARK/NUAK2; 1 μM): 97.10%
activity at 1 µM (SNARK/NUAK2): 98.7%
Activity% (MSK2/RPS6KA4; 1 μM): 106.42%
activity at 1 µM (MSK2/RPS6KA4): 107%
Activity% (BRSK2; 1 μM): 98.88%
activity at 1 µM (BRSK2): 100%
Activity% (PHKg2; 1 μM): 98.74%
activity at 1 µM (PHKg2): 100%
Activity% (MEK1; 1 μM): 97.25%
activity at 1 µM (MEK1): 99%
Activity% (STK32B/YANK2; 1 μM): 106.39%
activity at 1 µM (STK32B/YANK2): 107%
Activity% (COT1/MAP3K8; 1 μM): 94.93%
activity at 1 µM (COT1/MAP3K8): 95.2%
Activity% (AXL; 1 μM): 98.35%
activity at 1 µM (AXL): 98.8%
Activity% (GLK/MAP4K3; 1 μM): 102.14%
activity at 1 µM (GLK/MAP4K3): 104%
Activity% (TSSK3/STK22C; 1 μM): 103.77%
activity at 1 µM (TSSK3/STK22C): 104%
Activity% (ERBB2/HER2; 1 μM): 97.32%
activity at 1 µM (ERBB2/HER2): 99.1%
Activity% (p70S6Kb/RPS6KB2; 1 μM): 95.50%
activity at 1 µM (p70S6Kb/RPS6KB2): 98.8%
Activity% (CK1g1; 1 μM): 89.50%
activity at 1 µM (CK1g1): 90.7%
Activity% (EPHA8; 1 μM): 99.05%
activity at 1 µM (EPHA8): 100%
Activity% (MKK6; 1 μM): 107.08%
activity at 1 µM (MKK6): 109%
Activity% (YSK4/MAP3K19; 1 μM): 94.66%
activity at 1 µM (YSK4/MAP3K19): 95%
Activity% (STK38L/NDR2; 1 μM): 100.42%
activity at 1 µM (STK38L/NDR2): 101%
Activity% (PKAcg; 1 μM): 94.66%
activity at 1 µM (PKAcg): 95.6%
Activity% (SIK3; 1 μM): 94.84%
activity at 1 µM (SIK3): 99.4%
Activity% (YES/YES1; 1 μM): 87.91%
activity at 1 µM (YES/YES1): 89.2%
Activity% (ZAP70; 1 μM): 105.87%
activity at 1 µM (ZAP70): 107%
Activity% (TAOK3/JIK; 1 μM): 93.52%
activity at 1 µM (TAOK3/JIK): 94.6%
Activity% (MYLK4; 1 μM): 89.75%
activity at 1 µM (MYLK4): 92.7%
Activity% (WNK1; 1 μM): 111.38%
activity at 1 µM (WNK1): 112%
Activity% (FLT4/VEGFR3; 1 μM): 90.37%
activity at 1 µM (FLT4/VEGFR3): 91%
Activity% (PKG1b; 1 μM): 84.59%
activity at 1 µM (PKG1b): 85%
